Results: patent US6881741B2 (ViroChem Pharma Inc., priority 2001, dated 2005)

Molecular target: recombinant HCV NS5B (HCV RNA-dependent RNA polymerase) (Hepatitis C virus genotype 1b, UniProt P26663)
Assay: biochemical
Conditions: HCV polymerase activity, list of compounds of Example 27; read-out: IC50 (polymerase activity)

recombinant HCV NS5B (HCV RNA-dependent RNA polymerase), sequence (P26663 2420-3010 limits assumed): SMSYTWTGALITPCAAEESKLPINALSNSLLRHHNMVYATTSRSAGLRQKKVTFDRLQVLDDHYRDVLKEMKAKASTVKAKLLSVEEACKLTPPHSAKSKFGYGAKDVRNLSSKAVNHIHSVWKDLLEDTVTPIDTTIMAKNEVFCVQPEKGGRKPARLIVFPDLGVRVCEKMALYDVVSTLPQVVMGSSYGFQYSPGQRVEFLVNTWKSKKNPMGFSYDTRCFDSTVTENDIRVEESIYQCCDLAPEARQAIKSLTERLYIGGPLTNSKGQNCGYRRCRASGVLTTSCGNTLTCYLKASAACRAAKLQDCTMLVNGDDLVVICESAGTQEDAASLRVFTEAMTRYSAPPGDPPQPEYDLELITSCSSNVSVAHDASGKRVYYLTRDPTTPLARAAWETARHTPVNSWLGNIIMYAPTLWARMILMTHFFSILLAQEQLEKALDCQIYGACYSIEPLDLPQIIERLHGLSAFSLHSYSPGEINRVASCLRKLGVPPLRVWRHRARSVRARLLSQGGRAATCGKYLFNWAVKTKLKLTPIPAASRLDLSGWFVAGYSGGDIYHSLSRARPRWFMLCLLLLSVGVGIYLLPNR

| Compound | IC50 |
| --- | --- |
| Cc1ccc(CN(C(=O)C(C)C)c2cc(-c3ccccc3)sc2C(=O)O)cc1 [Compound 468, 3-[ISOBUTYRYL-(4-METHYL-BENZYL)- AMINO]-5-PHENYL-THIOPHENE-2- CARBOXYLIC ACID] | 5 to 20 µM |
| CC(C)C(=O)N(Cc1ccc(Cl)cc1)c1cc(-c2ccccc2)sc1C(=O)O [Compound 457, 3-[(4-CHLORO-BENZYL)-ISOBUTYRYL- AMINO]-5-PHENYL-THIOPHENE-2- CARBOXYLIC ACID] | 5 to 20 µM |
| C=CCN(C(=O)CCC(C)C)c1cc(-c2ccccc2)sc1C(=O)O [Compound 400, 3-[ALLYL-(4-METHYL-PENTANOYL)- AMINO]-5-PHENYL-THIOPHENE-2- CARBOXYLIC ACID] | 5 to 20 µM |
| CC(=O)N(Cc1ccc(F)cc1F)c1cc(-c2ccccc2)sc1C(=O)O [Compound 483, 3-[ACETYL-(2,4-DIFLUORO-BENZYL)- AMINO]-5-PHENYL-THIOPHENE-2- CARBOXYLIC ACID] | 5 to 20 µM |
| O=C(O)c1sc(-c2ccccc2)cc1N(C(=O)c1ccc(Cl)cc1Cl)C1CCCCC1 [Compound 553, 3-[CYCLOHEXYL-(2,4-DICHLORO- BENZOYL)-AMINO]-5-PHENYL- THIOPHENE-2-CARBOXYLIC ACID] | < 5 µM |
| CC([C@H](O[Si](C)(C)C(C)(C)C)c1ccccc1)N(C(=O)c1ccc(Cl)cc1Cl)c1cc(-c2ccccc2)sc1C(=O)O (stereo in doubt) [Compound 556, 3-[[2-(TERT-BUTYL-DIMETHYL- SILANYLOXY)-1-METHYL-2-PHENYL- ETHYL]-(2,4-DICHLORO-BENZOYL)- AMINO]-5-PHENYL-THIOPHENE-2- CARBOXYLIC ACID] | 5 to 20 µM |
| O=C(O)c1sc(-c2ccccc2)cc1N(C(=O)c1ccc(Cl)cc1Cl)C1CCCNC1 (centres unmarked) [Compound 514, 3-[(2,4-DICHLORO-BENZOYL)-PIPERIDIN- 3-YL-AMINO]-5-PHENYL-THIOPHENE-2- CARBOXYLIC ACID; COMPOUND WITH GENERIC INORGANIC NEUTRAL COMPONENT] | < 5 µM |
| CCC(=O)N(Cc1ccccc1)c1cc(-c2ccccc2)sc1C(=O)O [Compound 451, 3-(BENZYL-PROPIONYL-AMINO)-5- PHENYL-THIOPHENE-2-CARBOXYLIC ACID] | < 5 µM |
| CC(C)CC(=O)N(Cc1cccc(Cl)c1)c1cc(-c2ccccc2)sc1C(=O)O [Compound 479, 3-[(3-CHLORO-BENZYL)-(3-METHYL- BUTYRYL)-AMINO]-5-PHENYL- THIOPHENE-2-CARBOXYLIC ACID] | < 5 µM |
| COc1cccc(CN(C(=O)CC(C)C)c2cc(-c3ccccc3)sc2C(=O)O)c1 [Compound 472, 3-[(3-METHOXY-BENZYL)-(3-METHYL- BUTYRYL)-AMINO]-5-PHENYL- THIOPHENE-2-CARBOXYLIC ACID] | < 5 µM |

Same assay, conditions: related polymerase activity (Example 27 list); read-out: IC50

| Compound | IC50 |
| --- | --- |
| CCS(=O)(=O)Nc1cc(-c2ccccc2)sc1C(=O)O [Compound 242, 3-ETHANESULFONYLAMINO-5-PHENYL-THIOPHENE-2-CARBOXYLIC ACID] | 5 to 20 µM |
| CC(C)N(C(=O)c1cc(Cl)cc(Cl)c1)c1cc(-c2ccccc2)sc1C(=O)O [Compound 219, 3-[(3,5-DICHLORO-BENZOYL)-ISOPROPYL-AMINO]-5-PHENYL-THIOPHENE-2-CARBOXYLIC ACID] | 5 to 20 µM |
| Cc1ccccc1S(=O)(=O)Nc1cc(-c2cccc([N+](=O)[O-])c2)sc1C(=O)O [Compound 63, 5-(3-NITRO-PHENYL)-3-(TOLUENE-2-SULFONYLAMINO)-THIOPHENE-2-CARBOXYLIC ACID] | < 5 µM |
| Cc1ccc(C(=O)N(c2cc(-c3ccccc3)sc2C(=O)O)C(C)C)cc1F [Compound 331, 3-[(3-FLUORO-4-METHYL-BENZOYL)- ISOPROPYL-AMINO]-5-PHENYL- THIOPHENE-2-CARBOXYLIC ACID] | < 5 µM |
| Cc1ccc(C(=O)N(C)c2cc(-c3ccc(N)cc3)sc2C(=O)O)cc1 [Compound 200, 5-(4-AMINO-PHENYL)-3-[METHYL-(4-METHYL-BENZOYL)-AMINO]-THIOPHENE-2-CARBOXYLIC ACID] | 5 to 20 µM |
| CCCN(C(=O)c1ccc(C)cc1)c1cc(-c2ccc(CCC(=O)O)cc2)sc1C(=O)O [Compound 318, 5-[4-(2-CARBOXY-ETHYL)-PHENYL]-3-[(4- METHYL-BENZOYL)-PROPYL-AMINO]- THIOPHENE-2-CARBOXYLIC ACID] | 5 to 20 µM |
| C#Cc1cc(NS(=O)(=O)c2ccccc2C)c(C(=O)O)s1 [Compound 80, 5-ETHYNYL-3-(TOLUENE-2-SULFONYLAMINO)-THIOPHENE-2-CARBOXYLIC ACID] | 5 to 20 µM |
| Cc1ccccc1S(=O)(=O)Nc1cc(-c2cccc(OC(F)(F)F)c2)sc1C(=O)O [Compound 81, 3-(TOLUENE-2-SULFONYLAMINO)-5-(3-TRIFLUOROMETHOXY-PHENYL)-THIOPHENE-2-CARBOXYLIC ACID] | 5 to 20 µM |
| Cc1ccc(C(=O)N(c2cc(-c3ccccc3)sc2C(=O)O)C(C)C)c(O)c1 [Compound 301, 3-[(2-HYDROXY-4-METHYL-BENZOYL)- ISOPROPYL-AMINO]-5-PHENYL- THIOPHENE-2-CARBOXYLIC ACID] | 5 to 20 µM |
| Cc1ccc(C(=O)N(C)c2cc(-c3ccc(O)cc3)sc2C(=O)O)cc1 [Compound 215, 5-(4-HYDROXY-PHENYL)-3-[METHYL-(4-METHYL-BENZOYL)-AMINO]-THIOPHENE-2-CARBOXYLIC ACID] | < 5 µM |
| O=C(O)c1sc(-c2ccccc2)cc1NS(=O)(=O)c1ccccc1[N+](=O)[O-] [Compound 45, 3-(2-NITRO-BENZENESULFONYLAMINO)-5-PHENYL-THIOPHENE-2-CARBOXYLIC ACID] | < 5 µM |
| O=C(O)c1sc(-c2ccc(F)cc2)cc1NS(=O)(=O)c1ccc(F)cc1F [Compound 110, 3-(2,4-DIFLUORO-BENZENESULFONYLAMINO)-5-(4-FLUORO-PHENYL)-THIOPHENE-2-CARBOXYLIC ACID] | < 5 µM |
| CC(C)N(C(=O)c1ccc(Cl)cc1I)c1cc(-c2ccccc2)sc1C(=O)O [Compound 310, 3-[(4-CHLORO-2-IODO-BENZOYL)- ISOPROPYL-AMINO]-5-PHENYL- THIOPHENE-2-CARBOXYLIC ACID] | < 5 µM |
| Cc1cc(N(C(=O)c2ccc(Cl)cc2Cl)C(C)C)c(C(=O)O)s1 [Compound 382, 3-[(2,4-DICHLORO-BENZOYL)- ISOPROPYL-AMINO]-5-METHYL- THIOPHENE-2-CARBOXYLIC ACID] | < 5 µM |
| CN(C(=O)c1ccc(C(F)(F)F)cc1)c1cc(-c2ccccc2)sc1C(=O)O [Compound 209, 3-[4-(TRIFLUOROMETHYL-BENZOYL)METHYLAMINE]-5-PHENYL-THIOPHENE-2-CARBOXYLIC ACID] | 5 to 20 µM |
| O=C(O)c1sc(-c2ccccc2)cc1NS(=O)(=O)c1ccc(F)c(C(F)(F)F)c1 [Compound 145, 3-(4-FLUORO-3-TRIFLUOROMETHYL-BENZENESULFONYLAMINO)-5-PHENYL-THIOPHENE-2-CARBOXYLIC ACID] | 5 to 20 µM |
| Cc1ccc(S(=O)(=O)Nc2cc(-c3ccccc3)sc2C(=O)O)cc1 [Compound 13, 5-PHENYL-3-(TOLUENE-4-SULFONYLAMINO)-THIOPHENE-2-CARBOXYLIC ACID] | < 5 µM |
| CN(C(=O)CCC1CCCC1)c1cc(-c2ccccc2)sc1C(=O)O [Compound 384, 3-[(3-CYCLOPENTYL-PROPIONYL)- METHYL-AMINO]-5-PHENYL-THIOPHENE- 2-CARBOXYLIC ACID] | < 5 µM |
| Cc1cc(C(=O)N(C)c2cc(-c3ccccc3)sc2C(=O)O)ccc1Br [Compound 255, 3-[(4-BROMO-3-METHYL-BENZOYL)-METHYL-AMINO]-5-PHENYL-THIOPHENE-2-CARBOXYLIC ACID] | < 5 µM |
